Counter-ions that a name gives are not always drawn.

One may read the IC50 as the concentration that inhibits the measured activity by half.

Chain of human mPGES-1 (O14684 whole entry): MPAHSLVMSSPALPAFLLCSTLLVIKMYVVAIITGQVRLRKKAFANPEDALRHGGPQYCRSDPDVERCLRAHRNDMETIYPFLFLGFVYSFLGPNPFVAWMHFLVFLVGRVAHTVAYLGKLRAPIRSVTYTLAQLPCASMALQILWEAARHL

The target in one test is human mPGES-1 (Homo sapiens (Human), UniProt O14684). Briefly: mPGES-1 inhibiting activity (microsome fractions, PGE2 by HTRF). The note with it: microsomes from CHO-K1 cells transfected with human mPGES-1; PGH2 1 μM, 4° C., 60 seconds; read-out: mPGES-1 Inhibition IC50. The format is biochemical. The method, then:
mPGES-1 microsome fractions were prepared from CHO-K1 cells transiently transfected with plasmid encoding the human mPGES-1cDNA. Microsomes were diluted with potassium phosphate buffer containing reduced glutathione (pH7.4), and DMSO containing test compound or DMSO alone was added (such that DMSO final concentration would be 1% in each) and incubated at 4° C. for 20 minutes. Then, the enzymatic reactions were initiated by the addition of PGH2 substrate (final concentration 1 μM) and incubated at 4° C. for 60 seconds. The reaction was terminated by the addition of a citrate solution (final citrate concentration 50 mM) containing ferric chloride (final concentration 1 mg/mL). PGE2 production in the enzyme reaction aliquot was measured using HTRF kit (Cisbio International, catalogue #62P2APEC). The solution free of test compound was used as positive control, and the solution free of test compound and microsome sample was used as negative control. 100% activity was defined as PGE2 production in the positive control minus PGE2 production in negative control. IC50 value was calculated by standard method.
Turning to `Cc1c(Cl)cccc1NC(=O)c1cc(NC(=O)c2ccccc2C(F)(F)F)cc2[nH]c(N3CCC3)nc12` [Example 165, 2-(Azetidin-1-yl)-N-(3-chloro-2-methylphenyl)-6-({[2-(trifluoromethyl)phenyl]carbonyl}amino)-1H-benzimidazole-4-carboxamide hydrochloride], the half-inhibitory concentration (IC50) is 0.0013 µM. Still for that read-out and setting: the figure for `COCc1nc2c(C(=O)NCc3cccs3)cc(NC(=O)c3ccccc3C(F)(F)F)cc2[nH]1` [Example 223, 2-(Methoxymethyl)-N-(thiophen-2-ylmethyl)-6-({[2-(trifluoromethyl)phenyl]carbonyl}amino)-1H-benzimidazole-4-carboxamide hydrochloride] is 0.0682 µM; for `COCc1nc2c(C(=O)Nc3ccc4c(c3)S(=O)(=O)C=C4)cc(NC(=O)c3ccccc3C(F)(F)F)cc2[nH]1` [Example 222, N-(1,1-Dioxide-1-benzothiophen-6-yl)-2-(methoxymethyl)-6-({[2-(trifluoromethyl)phenyl]carbonyl}amino)-1H-benzimidazole-4-carboxamide hydrochloride] it is 0.661 µM. The same measure, in the same setting: the figure for `O=C(Nc1cc(C(=O)NCC2(O)CCCCC2)c2nc[nH]c2c1)c1ccccc1C(F)(F)F` [Example 5, N-[(1-Hydroxycyclohexyl)methyl]-6-({[2-(trifluoromethyl)phenyl]carbonyl}amino)-1H-benzimidazole-4-carboxamide] is 0.453 µM. In the case of `COCc1nc2c(C(=O)Nc3cccc(Cl)c3C)cc(NC(=O)c3cc(OCC(F)F)ccc3Cl)cc2[nH]1` [Example 248, 6-({[2-Chloro-5-(2,2-difluoroethoxy)phenyl]carbonyl}amino)-N-(3-chloro-2-methylphenyl)-2-(methoxymethyl)-1H-benzimidazole-4-carboxamide hydrochloride], the IC50 came out at 0.201 µM. Same read-out and setting: the figure for `COCc1nc2c(C(=O)Nc3cccc(Cl)c3C)cc(NC(=O)c3cc(CCC(C)(C)O)ccc3Cl)cc2[nH]1` [Example 119, 6-({[2-Chloro-5-(3-hydroxy-3-methylbutyl)phenyl]carbonyl}amino)-N-(3-chloro-2-methylphenyl)-2-(methoxymethyl)-1H-benzimidazole-4-carboxamide hydrochloride] is 0.208 µM; for `COCc1nc2c(C(=O)NCc3ccccc3Cl)cc(NC(=O)c3ccccc3C(F)(F)F)cc2n1C` [Example 91, N-(2-Chlorobenzyl)-2-(methoxymethyl)-1-methyl-6-({[2-(trifluoromethyl)phenyl]carbonyl}amino)-1H-benzimidazole-4-carboxamide] it is 0.327 µM; for `COCc1nc2c(C(=O)Nc3cccc4nsnc34)cc(NC(=O)c3ccccc3C(F)(F)F)cc2[nH]1` [Example 221, N-(2,1,3-Benzothiadiazol-4-yl)-2-(methoxymethyl)-6-({[2-(trifluoromethyl)phenyl]carbonyl}amino)-1H-benzimidazole-4-carboxamide hydrochloride] it is 0.0022 µM.

Take `COCc1nc2c(C(=O)Nc3cccc(Cl)c3C)cc(NC(=O)c3cc(C#CCOC(C)(C)C)ccc3Cl)cc2[nH]1` [Example 117, 6-({[5-(3-tert-Butoxy-1-propynyl)-2-chlorophenyl]carbonyl}amino)-N-(3-chloro-2-methylphenyl)-2-(methoxymethyl)-1H-benz imidazole-4-carboxamide hydrochloride]: the IC50 was found to be 0.584 µM.

In the case of `Cn1cnc2c(C(=O)NC3CCCCC3)cc(NC(=O)c3ccccc3C(F)(F)F)cc21` [Example 47, N-Cyclohexyl-1-methyl-6-({[2-(trifluoromethyl)phenyl]carbonyl}amino)-1H-benzimidazole-4-carboxamide], the half-maximal inhibitory concentration (IC50) is 0.27 µM.

Consider `O=C(Nc1cc(C(=O)NC2CCCCC2)c2[nH]ncc2c1)c1ccccc1C(F)(F)F` [Example 9, N-Cyclohexyl-5-({[2-(trifluoromethyl)phenyl]carbonyl}amino)-1H-indazole-7-carboxamide], for which the IC50 came out at 0.452 µM. Still for that read-out and setting: the figure for `COCc1nc2c(C(=O)Nc3cccs3)cc(NC(=O)c3ccccc3C(F)(F)F)cc2[nH]1` [Example 227, 2-(Methoxymethyl)-N-(thiophen-2-yl)-6-({[2-(trifluoromethyl)phenyl]carbonyl}amino)-1H-benzimidazole-4-carboxamide hydrochloride] is 0.0001 µM.

Turning to `O=C(Nc1cc2c(c(C(=O)NCc3ccccc3C(F)(F)F)c1)OCC2)c1ccccc1C(F)(F)F` [Example 6, N-[2-(Trifluoromethyl)benzyl]-5-({[2-(trifluoromethyl)phenyl]carbonyl}amino)-2,3-dihydro-1-benzofuran-7-carboxamide], the concentration for half-maximal inhibition (IC50) was 0.0274 µM. The same measure, in the same setting: the figure for `COCc1nc2c(C(=O)Nc3nc4ccccc4s3)cc(NC(=O)c3ccccc3C(F)(F)F)cc2[nH]1` [Example 225, N-(1,3-Benzothiazol-2-yl)-2-(methoxymethyl)-6-({[2-(trifluoromethyl)phenyl]carbonyl}amino)-1H-benzimidazole-4-carboxamide hydrochloride] is 0.0156 µM. Take `COCc1nc2c(C(=O)Nc3ccc4[nH]ccc4c3)cc(NC(=O)c3ccccc3C(F)(F)F)cc2[nH]1` [Example 224, N-(1H-Indol-5-yl)-2-(methoxymethyl)-6-({[2-(trifluoromethyl)phenyl]carbonyl}amino)-1H-benzimidazole-4-carboxamide]: the half-maximal inhibitory concentration (IC50) is 0.0265 µM. Same read-out and setting: the figure for `O=C(Nc1cc(C(=O)NCc2ccccc2C(F)(F)F)c2[nH]ncc2c1)c1ccccc1C(F)(F)F` [Example 10, N-[2-(Trifluoromethyl)benzyl]-5-({[2-(trifluoromethyl)phenyl]carbonyl}amino)-1H-indazole-7-carboxamide] is 0.333 µM; for `COCc1nc2c(C(=O)NCC(C)(C)C)cc(NC(=O)c3ccccc3C(F)(F)F)cc2[nH]1` [Example 226, N-(2,2-Dimethylpropyl)-2-(methoxymethyl)-6-({[2-(trifluoromethyl)phenyl]carbonyl}amino)-1H-benzimidazole-4-carboxamide hydrochloride] it is 0.0269 µM; for `COCc1nc2c(C(=O)Nc3cccnc3)cc(NC(=O)c3ccccc3C(F)(F)F)cc2[nH]1` [Example 216, 2-(Methoxymethyl)-N-(pyridin-3-yl)-6-({[2-(trifluoromethyl)phenyl]carbonyl}amino)-1H-benzimidazole-4-carboxamide hydrochloride] it is 0.204 µM.

Consider `COCc1nc2c(C(=O)Nc3ccsc3)cc(NC(=O)c3ccccc3C(F)(F)F)cc2[nH]1` [Example 220, 2-(Methoxymethyl)-N-(thiophen-3-yl)-6-({[2-(trifluoromethyl)phenyl]carbonyl}amino)-1H-benzimidazole-4-carboxamide hydrochloride], for which the half-maximal inhibitory concentration (IC50) amounted to 0.0086 µM.

Consider `COCc1nc2c(C(=O)Nc3nc4cc(Cl)ccc4o3)cc(NC(=O)c3ccccc3C(F)(F)F)cc2[nH]1` [Example 228, N-(5-Chloro-1,3-benzoxazol-2-yl)-2-(methoxymethyl)-6-({[2-(trifluoromethyl)phenyl]carbonyl}amino)-1H-benzimidazole-4-carboxamide hydrochloride], for which the IC50 turned out to be 0.0017 µM.

`Cc1c(Cl)cccc1NC(=O)c1cc(NC(=O)c2ccccc2C(F)(F)F)cc2[nH]c(NCC3(C)COC3)nc12` [Example 159, N-(3-Chloro-2-methylphenyl)-2-{[(3-methyloxetan-3-yl)methyl]amino}-6-({[2-(trifluoromethyl)phenyl]carbonyl}amino)-1H-benzimidazole-4-carboxamide hydrochloride]: the half-inhibitory concentration (IC50) was found to be 0.403 µM. On to `COCc1nc2c(C(=O)Nc3cccc(Cl)c3C)cc(NC(=O)c3ccc(C(F)(F)F)cc3C(F)(F)F)cc2[nH]1` [Example 111, 6-({[2,4-Bis(trifluoromethyl)phenyl]carbonyl}amino)-N-(3-chloro-2-methylphenyl)-2-(methoxymethyl)-1H-benzimidazole-4-carboxamide hydrochloride], for which the IC50 came out at 0.765 µM. On the same count and under the same terms, the figure for `COCc1nc2c(C(=O)Nc3cccc(Cl)c3C)cc(NC(=O)c3cc(OCCCC(F)(F)F)ccc3Cl)cc2[nH]1` [Example 249, N-(3-Chloro-2-methylphenyl)-6-({[2-chloro-5-(4,4,4-trifluorobutoxy)phenyl]carbonyl}amino)-2-(methoxymethyl)-1H-benzimidazole-4-carboxamide hydrochloride] is 0.404 µM.

The test system of the next test is A549 cells. Put plainly: Inhibition of PGE2 production in A549 cell (IL-1β stimulated). The conditions noted are these: Homo sapiens, A549, 24 h, IL-1β 5 ng/well, PGE2 in culture medium. The format is cell-based, human. The method, then: Human A549 cells were seeded onto a 96-well plate at 2×10^4 cells/100 μL per well and allowed to incubate overnight. After removing the culture medium and washing with phosphate buffered saline, the culture medium was replaced by RPMI culture medium with 3% FBS containing a DMSO solution containing test compound or DMSO alone (such that DMSO final concentration would be […] in each). After incubation for 60 minutes, IL-1β (5 ng/well) was added and incubated at 37° C. for 24 hours. Then, PGE2 in the culture medium was measured using HTRF kit (Cisbio International, catalogue #62P2APEC), and PGF2α in the culture medium was measured using EIA kit (Cayman Chemical Company, catalogue #516011). The solution free of test compound was used as positive control, and the solution free of test compound and IL-1β was used as negative control. 100% activity was defined as PGE2 and PGF2α production in the positive control minus PGE2 and PGF2α production in the negative control. IC50 value was calculated by standard method.
Regarding `Cc1c(Cl)cccc1NC(=O)c1cc(NC(=O)c2ccccc2C(F)(F)F)cc2[nH]c(N3CCC3)nc12` [Example 165, 2-(Azetidin-1-yl)-N-(3-chloro-2-methylphenyl)-6-({[2-(trifluoromethyl)phenyl]carbonyl}amino)-1H-benzimidazole-4-carboxamide hydrochloride], inhibition was half-maximal at 0.0074 µM (IC50). Still for that read-out and setting: the figure for `O=C(Nc1cc(C(=O)NCc2ccccc2C(F)(F)F)c2nc[nH]c2c1)c1ccccc1C(F)(F)F` [Example 1, N-[2-(Trifluoromethyl)benzyl]-6-({[2-(trifluoromethyl)phenyl]carbonyl}amino)-1H-benzimidazol-4-carboxamide] is 0.0889 µM.
